Results as given in ChEMBL document CHEMBL1201862, “PubChem BioAssay data set” (2004).
Active and inactive are the calls of the source.

Experiments:
Hexokinase = Hexokinase (Trypanosoma brucei, UniProt Q38C41); experiment: Confirmation assay for inhibitors of Trypanosoma brucei hexokinase 1-Analogue-first series. [Related pubchem assays (depositor defined):AID1430, AID1632, AID2516, AID2560, AID2579, AID2600, AID449725, AID492951]; format: functional
[1] = target: T1, Heat shock factor protein 1 (Mus musculus, UniProt P38532); experiment: inhibition of MG132-induced HSE-luciferase signal, confirmation, cell-based, NIH3T3, luminescence, dose retest (AID 2382); format: functional;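 also: NIH3T3 fibroblasts with HSF1-driven luciferase reporter stressed by proteasome inhibitor MG132; luminescence from HSF1-driven luciferase expression after 8 hours of MG132 stress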
T1 sequence (P38532 whole entry): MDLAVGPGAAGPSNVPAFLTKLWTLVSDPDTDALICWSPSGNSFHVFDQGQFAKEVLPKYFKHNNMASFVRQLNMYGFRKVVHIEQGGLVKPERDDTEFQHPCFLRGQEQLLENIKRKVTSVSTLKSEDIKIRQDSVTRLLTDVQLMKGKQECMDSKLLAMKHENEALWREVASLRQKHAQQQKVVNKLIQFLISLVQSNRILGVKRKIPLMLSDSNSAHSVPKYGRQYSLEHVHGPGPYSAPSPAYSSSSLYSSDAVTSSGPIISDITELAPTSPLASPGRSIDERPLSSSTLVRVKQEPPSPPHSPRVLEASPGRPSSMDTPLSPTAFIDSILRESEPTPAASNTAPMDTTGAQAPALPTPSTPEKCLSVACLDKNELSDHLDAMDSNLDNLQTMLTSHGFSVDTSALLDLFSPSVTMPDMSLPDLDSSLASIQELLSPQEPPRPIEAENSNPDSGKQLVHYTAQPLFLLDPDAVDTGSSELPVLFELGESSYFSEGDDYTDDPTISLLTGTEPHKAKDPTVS

[2] = target: Luciferin 4-monooxygenase (Photinus pyralis, UniProt P08659); experiment: firefly luciferase enzyme inhibitors, dose response, biochemical, luminescence (AID 1891)
Sequence of Luciferin 4-monooxygenase (P08659 whole entry): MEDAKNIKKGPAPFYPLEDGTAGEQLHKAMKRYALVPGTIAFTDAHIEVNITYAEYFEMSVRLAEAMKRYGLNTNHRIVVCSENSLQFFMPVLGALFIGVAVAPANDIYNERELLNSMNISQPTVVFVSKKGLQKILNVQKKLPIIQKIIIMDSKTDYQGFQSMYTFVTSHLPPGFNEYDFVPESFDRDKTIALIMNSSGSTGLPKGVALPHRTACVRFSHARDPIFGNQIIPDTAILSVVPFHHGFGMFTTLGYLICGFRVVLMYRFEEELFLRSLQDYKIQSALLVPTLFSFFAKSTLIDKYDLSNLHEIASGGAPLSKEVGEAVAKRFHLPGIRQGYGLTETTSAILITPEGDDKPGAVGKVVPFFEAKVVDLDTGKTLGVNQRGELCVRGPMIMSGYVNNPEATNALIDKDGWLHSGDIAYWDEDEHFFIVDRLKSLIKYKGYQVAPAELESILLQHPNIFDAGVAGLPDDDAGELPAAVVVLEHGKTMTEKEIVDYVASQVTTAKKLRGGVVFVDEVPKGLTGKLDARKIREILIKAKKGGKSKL

[3] = Luminescence Cell-Based Dose Confirmation HTS to Identify Inhibitors of Platelet Dense Granule Release. [Related pubchem assays: 1663 (Primary HTS), 1678 (Summary of Project)]; format: functional
[4] = target: Intestinal-type alkaline phosphatase (Homo sapiens, UniProt P09923); experiment: activation of human intestinal alkaline phosphatase – biochemical, dose response (AID 488873); format: functional
Sequence of Intestinal-type alkaline phosphatase (Homo sapiens, UniProt P09923) (P09923 whole entry): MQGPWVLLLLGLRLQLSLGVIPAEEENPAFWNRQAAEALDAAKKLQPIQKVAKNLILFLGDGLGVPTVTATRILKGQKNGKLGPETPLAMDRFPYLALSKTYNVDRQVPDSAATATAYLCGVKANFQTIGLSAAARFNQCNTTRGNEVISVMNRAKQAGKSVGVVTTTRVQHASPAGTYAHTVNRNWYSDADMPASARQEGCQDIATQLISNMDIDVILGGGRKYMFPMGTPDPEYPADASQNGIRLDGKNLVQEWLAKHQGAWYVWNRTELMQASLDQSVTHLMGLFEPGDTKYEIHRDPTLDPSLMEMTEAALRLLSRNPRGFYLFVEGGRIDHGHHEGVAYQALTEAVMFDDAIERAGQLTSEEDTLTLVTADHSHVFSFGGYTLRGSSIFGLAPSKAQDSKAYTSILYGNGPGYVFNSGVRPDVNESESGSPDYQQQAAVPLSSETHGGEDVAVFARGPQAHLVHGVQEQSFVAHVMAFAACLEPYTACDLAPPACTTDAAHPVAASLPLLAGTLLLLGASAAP

[5] = target: Intestinal-type alkaline phosphatase (Mus musculus, UniProt P24822); experiment: PubChem AID 488785; format: functional
Sequence of Intestinal-type alkaline phosphatase (Mus musculus, UniProt P24822) (P24822 whole entry): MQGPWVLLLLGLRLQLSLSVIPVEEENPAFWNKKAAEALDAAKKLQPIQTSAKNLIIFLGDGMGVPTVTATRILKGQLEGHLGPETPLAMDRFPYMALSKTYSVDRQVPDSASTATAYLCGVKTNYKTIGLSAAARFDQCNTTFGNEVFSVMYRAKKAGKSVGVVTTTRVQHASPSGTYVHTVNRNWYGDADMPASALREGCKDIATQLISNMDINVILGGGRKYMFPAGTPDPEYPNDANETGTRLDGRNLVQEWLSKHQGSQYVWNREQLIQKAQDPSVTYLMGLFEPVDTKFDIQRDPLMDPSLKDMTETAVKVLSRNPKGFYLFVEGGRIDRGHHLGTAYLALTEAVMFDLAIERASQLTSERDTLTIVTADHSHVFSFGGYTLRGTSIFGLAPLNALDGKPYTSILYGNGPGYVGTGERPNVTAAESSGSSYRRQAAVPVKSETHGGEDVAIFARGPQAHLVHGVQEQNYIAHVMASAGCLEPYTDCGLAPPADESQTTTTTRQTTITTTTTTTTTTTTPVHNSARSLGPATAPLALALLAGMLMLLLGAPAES

[6] = target: T2, Alkaline phosphatase, tissue-nonspecific isozyme (Homo sapiens, UniProt P05186); experiment: TNAP enzyme inhibition by screening hits, dose response, selectivity assay for mouse IAP inhibitor project, biochemical, human TNAP, uHTS hits (AID 488906); format: functional
T2 sequence (P05186 whole entry): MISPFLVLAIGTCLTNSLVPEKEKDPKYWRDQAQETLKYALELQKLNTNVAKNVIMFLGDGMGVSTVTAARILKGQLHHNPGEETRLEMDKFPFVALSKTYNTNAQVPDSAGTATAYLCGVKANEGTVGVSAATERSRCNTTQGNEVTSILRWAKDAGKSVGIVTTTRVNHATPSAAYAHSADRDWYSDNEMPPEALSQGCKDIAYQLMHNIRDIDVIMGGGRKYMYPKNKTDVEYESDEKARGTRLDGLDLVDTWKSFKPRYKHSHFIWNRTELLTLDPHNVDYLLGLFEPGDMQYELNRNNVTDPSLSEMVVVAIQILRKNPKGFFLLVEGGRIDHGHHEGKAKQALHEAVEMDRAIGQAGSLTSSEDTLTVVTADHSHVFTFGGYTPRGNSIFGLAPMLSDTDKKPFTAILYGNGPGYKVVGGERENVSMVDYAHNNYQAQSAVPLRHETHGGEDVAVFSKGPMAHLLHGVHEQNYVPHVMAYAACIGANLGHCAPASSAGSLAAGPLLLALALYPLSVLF

[7] = THP-1 cell cytotoxicity, dose response, cytotoxicity control for non-replicating M. tuberculosis project (AID 489025); format: functional
[8] = HepG2 cell cytotoxicity, dose response, cytotoxicity control for non-replicating M. tuberculosis project (AID 489018); format: functional; conditions: Mycobacterium tuberculosis
cells = format: functional
[9] = target: T3, RNA-binding protein pos-1 (Caenorhabditis elegans, UniProt G5EF15); experiment: inhibitors of POS-1/mex-3 RNA binding, dose response, biochemical, fluorescence polarization (AID 1964);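 also: purified POS-1 fused to maltose binding protein made in E. coli; potency of compounds blocking POS-1 binding to fluorescent RNA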
T3 sequence (G5EF15 whole entry): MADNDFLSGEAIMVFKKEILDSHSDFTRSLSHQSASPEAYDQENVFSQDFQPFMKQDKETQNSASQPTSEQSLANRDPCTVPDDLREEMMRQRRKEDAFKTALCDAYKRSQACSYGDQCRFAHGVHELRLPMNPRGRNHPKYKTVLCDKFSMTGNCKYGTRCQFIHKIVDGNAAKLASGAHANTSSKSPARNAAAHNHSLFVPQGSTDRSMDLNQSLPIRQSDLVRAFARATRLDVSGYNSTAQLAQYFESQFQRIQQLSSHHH

[10] = target: T4, Zinc finger protein mex-5 (Caenorhabditis elegans, UniProt Q9XUB2); experiment: MEX-5/TCR-2 RNA interaction inhibitors, dose response, biochemical, C. elegans, fluorescence polarization (AID 1960)
T4 sequence (Q9XUB2 whole entry): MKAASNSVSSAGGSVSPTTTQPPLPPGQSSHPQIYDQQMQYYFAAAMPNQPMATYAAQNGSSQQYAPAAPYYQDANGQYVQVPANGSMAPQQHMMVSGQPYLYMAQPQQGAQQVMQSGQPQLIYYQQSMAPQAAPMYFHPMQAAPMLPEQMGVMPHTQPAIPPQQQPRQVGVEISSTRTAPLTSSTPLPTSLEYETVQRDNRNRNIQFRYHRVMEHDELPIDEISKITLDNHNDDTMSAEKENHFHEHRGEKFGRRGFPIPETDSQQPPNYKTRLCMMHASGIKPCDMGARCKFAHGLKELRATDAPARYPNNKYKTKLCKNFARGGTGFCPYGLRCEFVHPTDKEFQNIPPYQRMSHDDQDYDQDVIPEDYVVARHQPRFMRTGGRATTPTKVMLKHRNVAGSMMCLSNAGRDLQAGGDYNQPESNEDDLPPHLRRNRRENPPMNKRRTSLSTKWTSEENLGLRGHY

[11] = target: Induced myeloid leukemia cell differentiation protein Mcl-1 (Homo sapiens, UniProt Q07820); experiment: MCL1-BIM BH3 interaction inhibitors, dose response, biochemical, fluorescence polarization, BIM-BH3 peptide, 1536-well (AID 2217)
Sequence of Induced myeloid leukemia cell differentiation protein Mcl-1 (Q07820 whole entry): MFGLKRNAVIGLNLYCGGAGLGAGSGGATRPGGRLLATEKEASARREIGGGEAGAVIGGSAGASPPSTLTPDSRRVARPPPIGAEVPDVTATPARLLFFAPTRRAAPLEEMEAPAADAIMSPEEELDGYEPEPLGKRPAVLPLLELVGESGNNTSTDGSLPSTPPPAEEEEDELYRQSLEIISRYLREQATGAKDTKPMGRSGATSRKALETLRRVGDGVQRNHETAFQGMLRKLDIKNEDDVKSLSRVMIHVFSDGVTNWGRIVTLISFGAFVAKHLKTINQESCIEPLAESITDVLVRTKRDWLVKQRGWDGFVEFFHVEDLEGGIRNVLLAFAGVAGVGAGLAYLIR

Bcl-2-like protein 1 = Bcl-2-like protein 1 (Homo sapiens, UniProt Q07817); experiment: BCL-XL inhibitors, dose response, selectivity assay for MCL1 inhibitor project, biochemical, fluorescence polarization, 1536-well (AID 2218)
Sequence of Bcl-2-like protein 1 (Q07817 whole entry): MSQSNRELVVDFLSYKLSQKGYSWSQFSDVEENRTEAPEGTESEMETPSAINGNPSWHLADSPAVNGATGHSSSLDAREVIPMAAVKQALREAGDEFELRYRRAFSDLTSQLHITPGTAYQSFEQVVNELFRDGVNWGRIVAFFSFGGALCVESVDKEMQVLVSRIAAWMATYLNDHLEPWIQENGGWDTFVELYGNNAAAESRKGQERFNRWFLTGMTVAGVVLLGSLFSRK

Caspase-3 = target: T5, Caspase-3 (Homo sapiens, UniProt P42574); experiment: procaspase-3 activators, dose response, biochemical, absorbance (AID 489014)
T5 sequence (P42574 whole entry): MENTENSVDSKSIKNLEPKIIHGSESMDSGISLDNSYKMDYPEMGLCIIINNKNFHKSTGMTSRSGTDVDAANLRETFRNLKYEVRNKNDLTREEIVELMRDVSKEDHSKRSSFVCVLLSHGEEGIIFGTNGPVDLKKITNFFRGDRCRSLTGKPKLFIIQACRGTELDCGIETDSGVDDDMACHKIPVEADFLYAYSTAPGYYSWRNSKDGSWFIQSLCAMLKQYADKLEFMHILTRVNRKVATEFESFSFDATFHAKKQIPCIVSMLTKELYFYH

[12] = Luminescence Cell-Based Dose Retest to Confirm Inhibitors of Cancer Stem Cells. [Related pubchem assays (depositor defined):AID2717, AID2721]; format: functional; conditions: Homo sapiens
Caspase-7 = Caspase-7 (Homo sapiens, UniProt P55210); experiment: procaspase-7 activators, dose response, counter-screen for procaspase-3 activator project, biochemical, absorbance (AID 489013)
Sequence of Caspase-7 (P55210 24-198 limits assumed): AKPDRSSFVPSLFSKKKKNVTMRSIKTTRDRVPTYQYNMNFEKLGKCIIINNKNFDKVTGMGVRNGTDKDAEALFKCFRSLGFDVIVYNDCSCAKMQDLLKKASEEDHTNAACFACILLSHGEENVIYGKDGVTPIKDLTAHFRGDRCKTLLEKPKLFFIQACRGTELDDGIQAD
Sequence of Caspase-7 (P55210 207-303 limits assumed): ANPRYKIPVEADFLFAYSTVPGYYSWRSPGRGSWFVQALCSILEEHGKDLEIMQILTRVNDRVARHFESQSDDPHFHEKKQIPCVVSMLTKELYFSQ
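For AC50 in this document: cells exposed to compound for roughly 70 hours or longer before luminescence read.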

Sequence of Hexokinase (Q38C41 whole entry): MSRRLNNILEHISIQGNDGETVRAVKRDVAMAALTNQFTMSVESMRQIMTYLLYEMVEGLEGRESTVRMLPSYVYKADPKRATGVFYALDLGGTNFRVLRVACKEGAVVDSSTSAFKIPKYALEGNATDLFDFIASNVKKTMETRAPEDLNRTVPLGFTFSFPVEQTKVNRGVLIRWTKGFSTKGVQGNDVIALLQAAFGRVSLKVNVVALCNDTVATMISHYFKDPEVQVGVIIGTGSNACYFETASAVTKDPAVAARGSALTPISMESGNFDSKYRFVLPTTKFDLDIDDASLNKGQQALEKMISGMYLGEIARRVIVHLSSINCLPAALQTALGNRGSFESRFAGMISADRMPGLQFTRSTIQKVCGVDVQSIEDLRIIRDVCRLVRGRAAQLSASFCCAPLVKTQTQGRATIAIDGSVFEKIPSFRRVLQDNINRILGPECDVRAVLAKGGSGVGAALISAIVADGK

For `O=C(Cn1sc2ccccc2c1=O)Nc1cccc(C(F)(F)F)c1`, which IC50 (Hexokinase) is on record?
Its IC50 is > 25 µM (inactive).

Which results are given for `CN(C)c1ccc(N=Nc2nc3ccccc3n2C)cc1`?
EC50 [1]: 0.429 µM (inconclusive); EC50 [2]: 0.213 µM (active); EC50 [3]: 0.208 µM (active); EC50 [4]: > 100 µM (inactive); IC50 [5]: 27.6 µM (active); IC50 [6]: 36.9 µM (active)

With `CCOc1ccc(C(=O)Nc2nc3ccccc3[nH]2)cc1OCC` as the compound, how does the CC50 [7] read?
The CC50 was > 40 µM (active).

And the CC50 [8]?
Its CC50 is 18.8 µM (active).

What about the IC50 (cells) of the same compound?
Its IC50 is 12 µM (active).

With `COC(=O)c1ccccc1NCc1cc(=O)oc2cc(O)c(O)cc12` as the compound, how does the EC50 [9] read?
Its EC50 is 19 µM (inconclusive).

What about the EC50 [10] of the same compound?
The EC50 was 18.4 µM (inconclusive).

And the IC50 [11]?
The IC50 was > 4.03 µM (active).

And the IC50 (Bcl-2-like protein 1)?
The IC50 was > 109 µM (not active).

What about the EC50 (Caspase-3) of the same compound?
The EC50 was > 1.05 µM (active).

What about the AC50 [12] of the same compound?
Its AC50 is 6.97 µM (active).

What about the EC50 (Caspase-7) of the same compound?
The EC50 was > 85.2 µM (inactive).
